# Assays:
# [1] = target: T1, ATR kinase (Homo sapiens, UniProt Q13535); assay: ATR Inhibition Assay (radioactive-phosphate incorporation); type: biochemical
# T1 construct: Assays were carried out at 25° C. in the presence of 5 nM full-length ATR
# Description: Compounds were screened for their ability to inhibit ATR kinase using a radioactive-phosphate incorporation assay. Assays were carried out in a mixture of 50 mM Tris/HCl (pH 7.5), 10 mM MgCl2 and 1 mM DTT. Final substrate concentrations were 10 μM [γ-33P]ATP (3mCi 33P ATP/mmol ATP, Perkin Elmer) and 800 μM target peptide ([…] (SEQ. ID NO: 1)).
# Assays were carried out at 25° C. in the presence of 5 nM full-length ATR. An assay stock buffer solution was prepared containing all of the reagents listed above, with the exception of ATP and the test compound of interest. 13.5 μL of the stock solution was placed in a 96 well plate followed by addition of 2 μL of DMSO stock containing serial dilutions of the test compound (typically starting from a final concentration of 15 μM with 3-fold serial dilutions) in duplicate (final DMSO concentration 7%). The plate was pre-incubated for 10 minutes at 25° C. and the reaction initiated by addition of 15 μL [γ-33P]ATP (final concentration 10 μM).
# The reaction was stopped after […] by the addition of 30 μL 0.1M phosphoric acid containing 2 mM ATP. A multiscreen phosphocellulose filter 96-well plate (Millipore, Cat no. MAPHN0B50) was pretreated with 100 μL 0.2M phosphoric acid prior to the addition of 45 μL of the stopped assay mixture. The plate was washed with 5×200 μL 0.2M phosphoric acid. After drying, 100 μL Optiphase ‘SuperMix’ liquid scintillation cocktail (Perkin Elmer) was added to the well prior to scintillation counting (1450 Microbeta Liquid Scintillation Counter, Wallac).
# After removing mean background values for all of the data points, Ki(app) data were calculated from non-linear regression analysis of the initial rate data using the Prism software package (GraphPad Prism version 3.0cx for Macintosh, GraphPad Software, San Diego Calif., USA).
# [2] = test system: HCT116 colorectal cancer cells; assay: Cisplatin Sensitization Assay (96 h cell viability MTS); type: cell-based; details: concentration of compound required to reduce the IC50 of Cisplatin alone by at least 3-fold; HCT116, 96 h MTS
# Description: Compounds can be screened for their ability to sensitize HCT116 colorectal cancer cells to Cisplatin using a 96 h cell viability (MTS) assay. […] Compounds and Cisplatin are then both added simultaneously to the cell media in 2-fold serial dilutions from a top final concentration of 10 μM as a full matrix of concentrations in a final cell volume of 200 μl, and the cells are then incubated at 37° C. in 5% CO2. After 96 h, 40 μl of MTS reagent (Promega G358a) is added to each well and the cells are incubated for 1 h at 37° C. in 5% CO2.
# T1 sequence (Q13535 whole entry): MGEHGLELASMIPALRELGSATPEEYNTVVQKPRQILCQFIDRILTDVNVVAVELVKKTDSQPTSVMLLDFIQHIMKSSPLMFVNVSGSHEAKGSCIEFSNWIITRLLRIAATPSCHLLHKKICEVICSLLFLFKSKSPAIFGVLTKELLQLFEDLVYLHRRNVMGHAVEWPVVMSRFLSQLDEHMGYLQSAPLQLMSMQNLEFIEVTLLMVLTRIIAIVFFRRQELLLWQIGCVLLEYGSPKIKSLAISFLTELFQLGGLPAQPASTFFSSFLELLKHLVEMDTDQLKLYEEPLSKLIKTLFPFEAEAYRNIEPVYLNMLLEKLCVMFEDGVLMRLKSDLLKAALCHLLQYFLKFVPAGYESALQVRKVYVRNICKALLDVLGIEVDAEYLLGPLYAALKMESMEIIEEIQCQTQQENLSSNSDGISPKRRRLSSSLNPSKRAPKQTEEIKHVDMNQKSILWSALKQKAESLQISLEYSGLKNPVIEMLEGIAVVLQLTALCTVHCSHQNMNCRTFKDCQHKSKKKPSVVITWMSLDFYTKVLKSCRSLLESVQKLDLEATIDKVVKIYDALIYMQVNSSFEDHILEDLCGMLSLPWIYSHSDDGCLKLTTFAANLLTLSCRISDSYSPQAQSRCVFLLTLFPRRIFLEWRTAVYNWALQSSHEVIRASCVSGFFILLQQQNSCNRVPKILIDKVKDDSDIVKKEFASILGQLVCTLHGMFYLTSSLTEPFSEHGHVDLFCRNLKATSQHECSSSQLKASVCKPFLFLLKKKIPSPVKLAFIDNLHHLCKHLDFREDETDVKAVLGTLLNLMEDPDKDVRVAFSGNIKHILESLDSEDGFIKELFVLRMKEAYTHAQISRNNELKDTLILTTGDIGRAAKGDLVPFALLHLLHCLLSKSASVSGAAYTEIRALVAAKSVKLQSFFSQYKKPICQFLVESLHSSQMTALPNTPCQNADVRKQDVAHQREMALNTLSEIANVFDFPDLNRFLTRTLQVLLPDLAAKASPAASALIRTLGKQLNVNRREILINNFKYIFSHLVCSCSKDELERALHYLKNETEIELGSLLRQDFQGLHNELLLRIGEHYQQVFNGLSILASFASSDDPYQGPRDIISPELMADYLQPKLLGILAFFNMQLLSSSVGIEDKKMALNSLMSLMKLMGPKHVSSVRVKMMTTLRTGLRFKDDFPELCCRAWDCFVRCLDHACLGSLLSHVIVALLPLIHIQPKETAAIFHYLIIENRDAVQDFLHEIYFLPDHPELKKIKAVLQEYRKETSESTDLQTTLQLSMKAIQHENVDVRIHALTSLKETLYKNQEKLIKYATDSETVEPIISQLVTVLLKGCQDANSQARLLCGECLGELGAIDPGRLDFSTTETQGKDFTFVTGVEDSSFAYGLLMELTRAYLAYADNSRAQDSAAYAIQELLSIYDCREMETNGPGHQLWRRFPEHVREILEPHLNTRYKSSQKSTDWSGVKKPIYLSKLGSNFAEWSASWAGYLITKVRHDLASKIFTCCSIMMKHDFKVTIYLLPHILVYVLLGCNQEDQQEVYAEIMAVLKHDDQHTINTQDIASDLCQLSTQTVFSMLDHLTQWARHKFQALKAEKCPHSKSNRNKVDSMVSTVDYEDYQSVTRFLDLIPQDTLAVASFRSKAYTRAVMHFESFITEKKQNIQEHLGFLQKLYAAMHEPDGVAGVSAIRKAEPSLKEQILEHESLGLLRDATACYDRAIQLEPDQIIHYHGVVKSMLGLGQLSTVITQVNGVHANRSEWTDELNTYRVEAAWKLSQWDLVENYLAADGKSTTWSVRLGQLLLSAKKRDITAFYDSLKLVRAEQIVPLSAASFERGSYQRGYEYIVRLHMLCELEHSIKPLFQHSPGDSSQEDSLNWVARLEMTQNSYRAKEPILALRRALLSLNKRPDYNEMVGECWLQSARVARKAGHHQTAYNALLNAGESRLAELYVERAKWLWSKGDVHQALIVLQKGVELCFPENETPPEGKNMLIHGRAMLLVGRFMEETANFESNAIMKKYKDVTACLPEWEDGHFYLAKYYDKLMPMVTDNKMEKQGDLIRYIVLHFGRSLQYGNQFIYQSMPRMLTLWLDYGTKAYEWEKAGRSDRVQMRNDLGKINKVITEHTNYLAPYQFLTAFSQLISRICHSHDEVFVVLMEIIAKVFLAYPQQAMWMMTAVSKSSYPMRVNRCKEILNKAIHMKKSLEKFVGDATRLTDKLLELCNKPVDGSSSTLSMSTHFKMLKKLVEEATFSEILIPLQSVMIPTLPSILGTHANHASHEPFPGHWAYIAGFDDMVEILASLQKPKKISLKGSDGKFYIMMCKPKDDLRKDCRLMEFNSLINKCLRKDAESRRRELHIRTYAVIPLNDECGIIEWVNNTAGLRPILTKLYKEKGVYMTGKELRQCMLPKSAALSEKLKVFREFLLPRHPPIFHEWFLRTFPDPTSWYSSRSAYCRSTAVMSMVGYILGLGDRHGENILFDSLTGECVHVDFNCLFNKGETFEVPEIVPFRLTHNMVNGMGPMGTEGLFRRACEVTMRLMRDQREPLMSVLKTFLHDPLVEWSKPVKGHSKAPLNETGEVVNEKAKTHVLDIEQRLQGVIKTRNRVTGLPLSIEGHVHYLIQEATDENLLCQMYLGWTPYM
SMILES,Ki [1] [µM],inhibition at 15 µM ([1]; at 15 uM) [%],CP3 Shift [2] [µM]
"CC(C)S(=O)(=O)c1ccc(-c2cnc(N)c(C#Cc3ccccc3)n2)cc1 [Compound I-7, 5-(4-Isopropylsulfonylphenyl)-3-(2-phenylethynyl)pyrazin-2-amine]",≤ 0.1,,2.5
"CC(C)S(=O)(=O)c1ccc(-c2cnc(N)c(C#Cc3cccc(N)c3)n2)cc1 [Compound I-21, 3-[2-(3-Aminophenyl)ethynyl]-5-(4-isopropylsulfonylphenyl)pyrazin-2-amine]",≤ 0.1,,0.312
"CC(C)S(=O)(=O)c1ccc(-c2cnc(N)c(C#Cc3cccs3)n2)cc1 [Compound I-22, 5-(4-Isopropylsulfonylphenyl)-3-[2-(2-thienyl)ethynyl]pyrazin-2-amine]",≤ 0.1,,1.25
"CC(C)S(=O)(=O)c1ccc(-c2cnc(N)c(C#Cc3ccccn3)n2)cc1 [Compound I-33, 5-(4-Isopropylsulfonylphenyl)-3-[2-(2-pyridyl)ethynyl]pyrazin-2-amine]",≤ 0.1,,2.5
"Nc1ncc(-c2ccc(S(=O)(=O)C3CCOCC3)cc2)nc1C#Cc1cccc(O)c1 [Compound I-34, 3-[2-[3-Amino-6-(4-tetrahydropyran-4-ylsulfonylphenyl)pyrazin-2-yl]ethynyl]phenol]",≤ 0.1,,0.079

# Further lines, with some results ahead:
Ki [1] [µM],inhibition at 15 µM ([1]; at 15 uM) [%],SMILES,CP3 Shift [2] [µM]
≤ 0.1,,"CC(C)S(=O)(=O)c1ccc(-c2cnc(N)c(C#Cc3cccc(O)c3)n2)cc1 [Compound I-35, 3-[2-[3-Amino-6-(4-isopropylsulfonylphenyl)pyrazin-2-yl]ethynyl]phenol]",0.118
≤ 0.1,,"CC(C)S(=O)(=O)c1ccc(-c2cnc(N)c(C#Cc3ccccc3F)n2)cc1 [Compound I-40, 3-((2-fluorophenyl)ethynyl)-5-(4-(isopropylsulfonyl)phenyl)pyrazin-2-amine]",2.5
≤ 0.1,,"CC(C)S(=O)(=O)c1ccc(-c2cnc(N)c(C#Cc3ccc4[nH]ncc4c3)n2)cc1 [Compound I-45, 3-((1H-indazol-5-yl)ethynyl)-5-(4-(isopropylsulfonyl)phenyl)pyrazin-2-amine]",
,30,"CC(C)S(=O)(=O)c1ccc(-c2cnc(N)c(C#Cc3ccccc3CO)n2)cc1 [Compound I-46, (2-((3-amino-6-(4-(isopropylsulfonyl)phenyl)pyrazin-2-yl)ethynyl)phenyl)methanol]",
≤ 0.1,,"Cc1ccc(O)cc1C#Cc1nc(-c2ccc(S(=O)(=O)C(C)C)cc2)cnc1N [Compound I-47, 3-((3-amino-6-(4-(isopropylsulfonyl)phenyl)pyrazin-2-yl)ethynyl)-4-methylphenol]",
≤ 0.1,,"CC(C)S(=O)(=O)c1ccc(-c2cnc(N)c(C#Cc3cc(Cl)cc(CO)c3)n2)cc1 [Compound I-48, (3-((3-amino-6-(4-(isopropylsulfonyl)phenyl)pyrazin-2-yl)ethynyl)-5-chlorophenyl)methanol]",
≤ 0.1,,"CC(C)S(=O)(=O)c1ccc(-c2cnc(N)c(C#Cc3cccc(NC(=O)CN)c3)n2)cc1 [Compound I-49, 2-amino-N-(3-((3-amino-6-(4-(isopropylsulfonyl)phenyl)pyrazin-2-yl)ethynyl)phenyl)acetamide]",

# Reference: patent US8969356B2, “Compounds useful as inhibitors of ATR kinase” (Vertex Pharmaceuticals Incorporated, priority 2010, dated 2015)
